In patent US9376392B2, “2-(tert-butoxy)-2-(7-methylquinolin-6-yl) acetic acid derivatives for treating AIDS” (Gilead Sciences, Inc., priority 2012, dated 2016):

Test system: HIV-IIIb (MT-4 cells)
Test: Test A: Antiviral Assays in MT4 Cells
Type: cell-based
Settings: MT-4 cells infected with HIV-IIIb, 5 days of incubation, CellTiter-Glo readout
Experimental: The antiviral properties of a compound disclosed herein may be determined using Test A described below.
Test A: Antiviral Assays in MT4 Cells
For the antiviral assay utilizing MT-4 cells, 0.4 μL of […] test concentration of 3-fold serially diluted compound in DMSO was added to 40 μL of cell growth medium (RPMI 1640, 10% FBS, 1% penicillin/Streptomycin, 1% L-Glutamine, 1% HEPES) in each well of 384-well assay plates (10 concentrations) in quadruplicate.
1 mL aliquots of 2×10e6 MT-4 cells are pre-infected for 1 and 3 hrs respectively, @ 37° C. with 25 μL (MT4) or of either cell growth medium (mock-infected) or a fresh 1:250 dilution of an HIV-IIIb concentrated ABI stock (0.004 m.o.i. for MT4 cells). Infected and uninfected cells are diluted in cell growth medium and 35 μL of 2000 (for MT4) cells is added to each well of the assay plates.
Assay plates were then incubated in a 37° C. incubator. After 5 days of incubation, […] 2× concentrated CellTiter-Glo™ Reagent (catalog #G7573, Promega Biosciences, Inc., Madison, Wis.) was added to each well of the assay plate. Cell lysis was carried out by incubating at room temperature for 2-3 min and then chemiluminescence was read using the Envision reader (PerkinElmer).

SMILES	EC50 (MT4, 120 h) [nM]	EC50 [nM]
Cc1cc2nc(C(C)(F)F)ccc2c(-c2ccc3c4c(ccnc24)CCO3)c1[C@H](OC(C)(C)C)C(=O)O (atropisomer, axis not shown) [Example 52, (S)-2-tert-Butoxy-2-((R)-2-(1,1-difluoroethyl)-5-(2,3-dihydropyrano[4,3,2-de]quinolin-7-yl)-7-methylquinolin-6-yl)acetic acid]	65.1	–
Cc1cc2nc(OCc3ccc(OC(F)(F)F)cc3)ccc2c(-c2ccc3c4c(ccnc24)CCO3)c1[C@H](OC(C)(C)C)C(=O)O (atropisomer, axis not shown) [Example 13, (S)-2-tert-Butoxy-2-((R)-5-(2,3-dihydropyrano[4,3,2-de]quinolin-7-yl)-7-methyl-2-(4-(trifluoromethoxy)benzyloxy)quinolin-6-yl)acetic acid]	285	–
Cc1cc2c(ccc(=O)n2Cc2ccccc2OC(F)(F)F)c(-c2ccc3c4c(ccnc24)CCO3)c1[C@H](OC(C)(C)C)C(=O)O (atropisomer, axis not shown) [Example 15, (S)-2-tert-Butoxy-2-((R)-5-(2,3-dihydropyrano[4,3,2-de]quinolin-7-yl)-7-methyl-2-oxo-1-(2-(trifluoromethoxy)benzyl)-1,2-dihydroquinolin-6-yl)acetic acid]	359	–
Cc1cc2c(ccc(=O)n2Cc2ccc(C(F)(F)F)cc2)c(-c2ccc3c4c(ccnc24)CCO3)c1[C@H](OC(C)(C)C)C(=O)O (atropisomer, axis not shown) [Example 11, (S)-2-tert-Butoxy-2-((R)-5-(2,3-dihydropyrano[4,3,2-de]quinolin-7-yl)-7-methyl-2-oxo-1-(4-(trifluoromethyl)benzyl)-1,2-dihydroquinolin-6-yl)acetic acid]	983	–
CC(=O)Nc1ccc2c(-c3ccc4c5c(ccnc35)CCO4)c([C@H](OC(C)(C)C)C(=O)O)c(C)cc2n1 (atropisomer, axis not shown) [Example 48, (S)-2-((R)-2-Acetamido-5-(2,3-dihydropyrano[4,3,2-de]quinolin-7-yl)-7-methylquinolin-6-yl)-2-tert-butoxyacetic acid]	361	–
Cc1cc2nc(OCc3ccc(S(N)(=O)=O)cc3)ccc2c(-c2ccc3c4c(ccnc24)CCO3)c1[C@H](OC(C)(C)C)C(=O)O (atropisomer, axis not shown) [Example 17, (S)-2-tert-Butoxy-2-((R)-5-(2,3-dihydropyrano[4,3,2-de]quinolin-7-yl)-7-methyl-2-(4-sulfamoylbenzyloxy)quinolin-6-yl)acetic acid]	84	–
Cc1cc2nc(C#N)ccc2c(-c2ccc3c4c(ccnc24)CCO3)c1[C@H](OC(C)(C)C)C(=O)O (atropisomer, axis not shown) [Example 50, (S)-2-tert-Butoxy-2-((R)-2-cyano-5-(2,3-dihydropyrano[4,3,2-de]quinolin-7-yl)-7-methylquinolin-6-yl)acetic acid]	166	–
Cc1cc2nc(OCc3ccc(C(N)=O)cc3)ccc2c(-c2ccc3c4c(ccnc24)CCO3)c1[C@H](OC(C)(C)C)C(=O)O (atropisomer, axis not shown) [Example 8, (S)-2-tert-Butoxy-2-((R)-2-(4-carbamoylbenzyloxy)-5-(2,3-dihydropyrano[4,3,2-de]quinolin-7-yl)-7-methylquinolin-6-yl)acetic acid]	36.8	–
COc1cc(Cn2c(=O)ccc3c(-c4ccc5c6c(ccnc46)CCO5)c([C@H](OC(C)(C)C)C(=O)O)c(C)cc32)cc(OC)c1 (atropisomer, axis not shown) [Example 33, (S)-2-tert-Butoxy-2-((R)-5-(2,3-dihydropyrano[4,3,2-de]quinolin-7-yl)-1-(3,5-dimethoxybenzyl)-7-methyl-2-oxo-1,2-dihydroquinolin-6-yl)acetic acid]	133	–
Cc1cc2c(ccc(=O)n2Cc2ccc3c(cnn3C)c2)c(-c2ccc3c4c(ccnc24)CCO3)c1[C@H](OC(C)(C)C)C(=O)O (atropisomer, axis not shown) [Example 29, (S)-2-tert-Butoxy-2-((R)-5-(2,3-dihydropyrano[4,3,2-de]quinolin-7-yl)-7-methyl-1-((1-methyl-1H-indazol-5-yl)methyl)-2-oxo-1,2-dihydroquinolin-6-yl)acetic acid]	85.5	–
Cc1cc2c(ccc(=O)n2Cc2cccc(OC(F)(F)F)c2)c(-c2ccc3c4c(ccnc24)CCO3)c1[C@H](OC(C)(C)C)C(=O)O (atropisomer, axis not shown) [Example 18, (S)-2-tert-Butoxy-2-((R)-5-(2,3-dihydropyrano[4,3,2-de]quinolin-7-yl)-7-methyl-2-oxo-1-(3-(trifluoromethoxy)benzyl)-1,2-dihydroquinolin-6-yl)acetic acid]	185	–
CCC(C)(CC)O[C@H](C(=O)O)c1c(C)cc2nc(C)ccc2c1-c1ccc2c3c(ccnc13)CCO2 (atropisomer, axis not shown) [Example 41, (S)-2-((R)-5-(2,3-Dihydropyrano[4,3,2-de]quinolin-7-yl)-2,7-dimethylquinolin-6-yl)-2-(3-methylpentan-3-yloxy)acetic acid]	–	39
Cc1cc2nc(C(C)F)ccc2c(-c2ccc3c4c(ccnc24)CCO3)c1[C@H](OC(C)(C)C)C(=O)O (stereo partly drawn) [Example 53, (2S)-2-tert-Butoxy-2-((5R)-5-(2,3-dihydropyrano[4,3,2-de]quinolin-7-yl)-2-(1-fluoroethyl)-7-methylquinolin-6-yl)acetic acid]	22.1	–
Cc1cccc(-n2c(=O)ccc3c(-c4ccc5c6c(ccnc46)CCO5)c([C@H](OC(C)(C)C)C(=O)O)c(C)cc32)c1 (atropisomer, axis not shown) [Example 35, (S)-2-tert-Butoxy-2-((R)-5-(2,3-dihydropyrano[4,3,2-de]quinolin-7-yl)-7-methyl-2-oxo-1-m-tolyl-1,2-dihydroquinolin-6-yl)acetic acid]	1470	–
Cc1cc2c(ccc(=O)n2Cc2cc(C(F)(F)F)cc(C(F)(F)F)c2)c(-c2ccc3c4c(ccnc24)CCO3)c1[C@H](OC(C)(C)C)C(=O)O (atropisomer, axis not shown) [Example 20, (S)-2-((R)-1-(3,5-Bis(trifluoromethyl)benzyl)-5-(2,3-dihydropyrano[4,3,2-de]quinolin-7-yl)-7-methyl-2-oxo-1,2-dihydroquinolin-6-yl)-2-tert-butoxyacetic acid]	90	–
Cc1cc2nc(C(C)(C)O)ccc2c(-c2ccc3c4c(ccnc24)CCO3)c1[C@H](OC(C)(C)C)C(=O)O (atropisomer, axis not shown) [Example 51, (S)-2-tert-Butoxy-2-((R)-5-(2,3-dihydropyrano[4,3,2-de]quinolin-7-yl)-2-(2-hydroxypropan-2-yl)-7-methylquinolin-6-yl)acetic acid]	186	–
Cc1cc2c(ccc(=O)n2Cc2cccc(S(C)(=O)=O)c2)c(-c2ccc(Cl)cc2)c1[C@H](OC(C)(C)C)C(=O)O [Example 6, (S)-2-tert-Butoxy-2-(5-(4-chlorophenyl)-7-methyl-1-(3-(methylsulfonyl)benzyl)-2-oxo-1,2-dihydroquinolin-6-yl)acetic acid]	290	–
COc1cccc(Cn2c(=O)ccc3c(-c4ccc5c6c(ccnc46)CCO5)c([C@H](OC(C)(C)C)C(=O)O)c(C)cc32)c1 (atropisomer, axis not shown) [Example 26, (S)-2-tert-butoxy-2-((R)-5-(2,3-dihydropyrano[4,3,2-de]quinolin-7-yl)-1-(3-methoxybenzyl)-7-methyl-2-oxo-1,2-dihydroquinolin-6-yl)acetic acid]	99.3	–
